Measurements as given in a melting point compilation (Tetko et al.; mined from patent text by program, amines drawn as free bases though some values may be those of a salt).

Compound	melting point [°C]
O=CNc1nc(OCOC(=O)C2CCCC2)ncc1F	76 to 79
CCCCNC(=O)[C@H](C)C[C@H](O)[C@H](CC1CCCCC1)NC(=O)[C@H](Cc1cscn1)NC(=O)[C@@H](CC(=O)N1CCN(C)CC1)Cc1ccc(OC)cc1	125 to 126
CN1CCCC(NC(=O)c2ccc3[nH]ncc3c2)C1 (centres undefined)	228 to 229
O=C(Nc1ccc(N(Cc2ccccc2)C(=O)OCc2ccccc2)c(F)c1)OCc1ccccc1	101 to 102
Cc1c(SCCCSc2ccc3ncc([N+](=O)[O-])n3n2)ccnc1CSc1ncccn1	143 to 147
CCCc1ccccc1OCC(O)COc1ccc2oc(C(=O)O)cc(=O)c2c1 (centres undefined)	164 to 166
CN1CCc2c(c3cc(Cl)ccc3n2CCC#N)C1	127 to 129
CCOCN1C(C)=C(C(=O)O)C(c2cccc([N+](=O)[O-])c2)C(C(=O)OC)=C1C (single isomer, unassigned; (-))	134 to 135
CC(=O)Nc1ccccc1C(=O)C=CN(C)C	90 to 95
CC(SC(=O)c1ccccc1)C(=O)N(CC(=O)O)C1CC1 (centres undefined)	140 to 143
O=C(O)COc1ccc(C(=O)Nc2cccc(Cl)c2Cl)cc1	153 to 157
Cc1nc(-c2c(F)cccc2F)n[nH]1	195 to 198
C=CCc1cc(C#CC2(O)CN3CCC2CC3)ccc1OCC(=O)OCC (centres undefined)	95.9
COC(=O)c1cc(OCc2ccccc2)c2nc(C)n(C)c2c1	166
COCN1C(C)=C(C(=O)O)C(c2ccccc2C(F)(F)F)C(C(=O)OCOC(=O)C(C)(C)C)=C1C (single isomer, unassigned; (+))	69 to 70
COc1ccc([C@H]2CCc3ccccc3[C@@H]2C#N)cc1 (racemic)	126 to 131
CC(=O)On1c(C)csc1=S	100 to 101
CCCCCCCN(Cc1ccc(C(C)(C)C)cc1)C(Nc1ccc(F)cc1F)=C1C(=O)COC1=O	89 to 92
O=C(NCc1ccccc1Cl)c1cccnc1Oc1cccnc1	174 to 176
Cc1nc2cccc3c(=O)n(CCCCNS(=O)(=O)C(F)(F)F)c(=O)c1n23	181 to 182
CC(C)[C@H](N=Cc1cccc(-c2ccccc2)c1O)C(=O)O	140 to 141
O=C(O)CC1c2ccccc2C(=O)N1c1ccccc1 (centres undefined)	204 to 205
COc1cccc(OC)c1Cc1c(Cl)ncnc1Cl	152 to 153
O=C(CCCl)N(c1ccccc1)c1ccccc1	93 to 94
CNC(=O)OCc1cnc2c(NC(=O)c3c(Cl)cccc3Cl)cccc2c1-n1ccnc1	240 to 242

Compound	melting point [°C]
O=C1C(c2ccccc2)c2ccccc2SN1c1ccccc1O (centres undefined)	165 to 168
CNC(=O)COC(=O)N1CCN(CCOc2ccc(Cl)cc2)CC1	159 to 161
CC(O)CN1CCN(c2cccc3c2OCCO3)CC1 (centres undefined)	92
O=P(O)(O)C(NCCCCOc1ccccc1)P(=O)(O)O	206 to 208
O=C(/C=C\c1ccccc1)Nc1ccccc1	101 to 102
CCOCc1nc2c(N)nc3ccccc3c2n1CC(=O)CC	187 to 188
Cc1cccc(-c2nc(Cl)cc(-c3ccccc3Cl)n2)n1	133
CCCCCC(=O)N1c2cscc2C(=O)N(C)c2ccccc21	76 to 77
CC(=O)NC[C@H]1CN(c2ccc(N3CCC(Cc4nnn(C)n4)CC3)c(F)c2)C(=O)O1	136 to 138
COc1cc2ncnc(N3CCN(C(=S)NCc4ccc(C(F)(F)F)cc4)CC3)c2cc1OC	216 to 217
CCc1c2n(c3ccccc13)C(=O)C(Cc1ncn(C(c3ccccc3)(c3ccccc3)c3ccccc3)c1C)CC2 (centres undefined)	78 to 82
Cn1c2ccc(Cl)cc2c2cc(C(=O)O)sc21	259 to 262
CCN(CC)CCOc1ccc(C(O)(CC)c2cccc(C(F)(F)F)c2)cc1 (centres undefined)	74 to 75
Cn1cc2c(n1)SSSSS2	94 to 102
O=c1cc(-c2ccncn2)nc2n1CCC1(CCNC1)N2 (centres undefined)	226 to 228
CC(=O)C=CSc1ncc(Cl)cn1	89
Nc1ccc2oc3c(c2c1)CCCCC3	98 to 99
CC(C)n1nc(-c2sc(NC(=O)N3CCCCC3)nc2-c2ccccc2)ccc1=O	138 to 140
CNC(=O)NS(=O)(=O)c1cc2c(cc1OC)OCC(NC(=O)c1cc(Cl)ccc1OC)C2 (centres undefined)	256 to 257
CCC(=O)N1CCC(C(=O)O)CC1	91 to 94
CC(C)(C)C(=O)COc1ccc(Cl)cc1Cl	65
Cc1cc(-c2[nH]nc3c2C(=O)c2c(NC(=O)NN4CCN(C)CC4)cccc2-3)c(C)s1	250
COC(=O)C(C)Nc1ccc(F)c(F)c1F (centres undefined)	41 to 43
CSC[C@H](C)NC(=O)c1c(Cl)cccc1C(=O)Nc1ccc(Cn2nc(C(F)(F)F)cc2C(F)(F)F)nc1C	92
